Results on 37 molecules are retold here after US11884627B2, “Compounds and compositions for treating conditions associated with LPA receptor activity” (Lhotse Bio, Inc., priority 2022, dated 2024).

pIC50: −log10 of the molar value. Read-outs that look alike come from different tables or passages of the source.

In the experiment the target is T1, human LPA1 (Homo sapiens, UniProt Q92633).
T1 construct: expressed in transfected cells; host or cells: CHO-K1
The experiment can be described thus: In vitro LPA1 calcium flux antagonist assay - Bioduro protocol. To be noted: CHO-K1 cells overexpressing human LPA1 and G15a, LPA challenge at EC80. It is filed as cell-based. The protocol:
In Vitro LPA1 Calcium Flux Antagonist Assay—Bioduro Protocol
CHO-K1 cells overexpressing human LPA1 and G15a were seeded at a total volume of 20 μL (15000 cells/well) into Matrigel pre-coated 384-well plates (corning −3764) and incubated at 37° C. After overnight incubation, the cells were serum starved for 4 h. Assays were performed in dye loading buffer containing 1× Fluo-8 AM (AAT Bioquest, 21080) and 2.5 mM probenecid (Thermo Fisher, 36400) in HBSS/20 mM Hepes. After cell starvation, the medium was replaced with 20 μL of dye loading buffer and incubated at 37° C., for 30 min. Then 5 μL of 5× compound titrated in dye loading buffer was added to the cells and incubated for 30 min followed by LPA challenge at EC80. Calcium mobilization was measured on a FLIPR Tetra (MSD). For LPA EC80 determination, starved cells were incubated with 20 μL of dye loading buffer for 1 h, then 5 μL of 5×LPA titrated in dye loading buffer was added to the cells. Calcium signals induced by LPA was monitors on a FLIPR.
Percentage inhibition is calculated using the following formula: % Inhibition=100%×(1−(mean RFU of test sample−mean RFU of DMSO)/(mean RFU of LPA control−mean RFU of DMSO)).
Table B3 and Table B4 show the biological activity of compounds in in vitro LPA1 Calcium flux antagonist assay—Bioduro protocol.

Where [1] appears, read: calcium mobilization on FLIPR Tetra, read-out: IC50.
[2] abbreviates: Table B3, read-out: Activity (IC50 class).

T1 sequence (Q92633 whole entry): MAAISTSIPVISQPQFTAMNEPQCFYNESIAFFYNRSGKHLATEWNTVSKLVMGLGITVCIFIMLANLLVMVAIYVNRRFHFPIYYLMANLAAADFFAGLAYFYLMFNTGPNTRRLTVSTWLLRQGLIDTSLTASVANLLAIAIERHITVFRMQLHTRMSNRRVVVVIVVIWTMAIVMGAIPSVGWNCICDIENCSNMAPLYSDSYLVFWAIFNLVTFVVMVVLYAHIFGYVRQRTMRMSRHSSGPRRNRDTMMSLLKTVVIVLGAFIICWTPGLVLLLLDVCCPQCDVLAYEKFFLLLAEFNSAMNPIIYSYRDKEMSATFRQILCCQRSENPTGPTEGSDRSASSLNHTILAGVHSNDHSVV

Consider `COc1cc(-c2ccc(NC3(C(=O)O)CCOCC3)cc2CO[C@@H]2CCC[C@H]2OC)c(C)c(OC)c1C` (racemic) [Compound 204], for which the pIC50 reads like this: under setting [1], 6.79; under setting [2], 6.00 to 7.00.

With `COc1cc(-c2ccc(NC3(C(=O)O)CC(OC)C3)cc2COC2Cc3ccccc3C2)cc(OC)c1C` (single isomer, unassigned) [Compound 125], the negative-log IC50 (pIC50) runs as follows: under setting [1], 6.94; under setting [2], 6.00 to 7.00.

With `COc1cc(-c2ccc(NC3(C(=O)O)CC(OC)C3)cc2COC2Cc3ccccc3C2)cc(OC)c1C` (single isomer, unassigned) [Compound 126], the pIC50 by setting is: under setting [1], 7.49; under setting [2], more than 7.00.

On to `COc1cc(OC)cc(-c2ccc(NC3(C(=O)O)CCOCC3)cc2COC2COc3ccccc32)c1` (single isomer, unassigned) [Compound 158], for which the pIC50 under setting [1] was 7.33 and the pIC50 under setting [2] is more than 7.00.

Turning to `COc1cc(OC)cc(-c2ccc(NC3(C(=O)O)CCOCC3)cc2COC2COc3ccccc32)c1` (single isomer, unassigned) [Compound 159], the negative logarithm of the IC50 (pIC50) is less than 5.00 under setting [1] and less than 6.00 under setting [2].

Take `COc1cc(-c2ccc(NC3(C(=O)O)CCOCC3)cc2CCC2CCOC2)cc(OC)c1C` (single isomer, unassigned) [Compound 186, 4-((3′,5′-dimethoxy-4′-methyl-2-(2-(tetrahydrofuran-3-yl)ethyl)-[1,1′-biphenyl]-4-yl)amino)tetrahydro-2H-pyran-4-carboxylic acid]: the pIC50 is 7.19 under setting [1] and more than 7.00 under setting [2].

`COc1cc(-c2ccc(NC3(C(=O)O)CCCOC3)cc2COC2CCCC2)c(C)c(OC)c1C` (single isomer, unassigned) [Compound 200]: the pIC50 under setting [1] was 6.11 and the pIC50 under setting [2] was 6.00 to 7.00.

As for `COc1cc(-c2ccc(NC3(C(=O)O)CCCOC3)cc2COC2CCCC2)c(C)c(OC)c1C` (single isomer, unassigned) [Compound 201], the pIC50 is 7.14 under setting [1] and more than 7.00 under setting [2].

In the case of `COc1cc(-c2ccc(NC3(C(=O)O)CCOCC3)cc2COC2COc3ccccc32)cc(OC)c1C` (single isomer, unassigned) [Compound 216], the pIC50 by setting is: under setting [1], 7.73; under setting [2], more than 7.00.

On to `COc1cc(-c2ccc(NC3(C(=O)O)CCOCC3)cc2COC2COc3ccccc32)cc(OC)c1C` (single isomer, unassigned) [Compound 217], for which the negative-log IC50 (pIC50) was 6.23 under setting [1] and 6.00 to 7.00 under setting [2].

Consider `COc1cc(-c2ccc(NC3(C(=O)O)CCOCC3)cc2COC2COc3ccccc32)c(F)c(OC)c1C` (single isomer, unassigned) [Compound 223], for which the pIC50 reads like this: under setting [1], 8.32; under setting [2], more than 7.00.

`COc1cc(-c2ccc(NC3(C(=O)O)CCOCC3)cc2COC2COc3ccccc32)c(F)c(OC)c1C` (single isomer, unassigned) [Compound 224]: the pIC50 under setting [1] is 6.80 and the pIC50 under setting [2] was 6.00 to 7.00.

Consider `COc1cc(-c2ccc(NC3(C(=O)O)CCC(C)(OC)CC3)cc2COC2CCCC2)c(F)c(OC)c1C` (single isomer, unassigned) [Compound 237], for which the pIC50 by setting is: under setting [1], 7.20; under setting [2], more than 7.00.

`COc1cc(-c2ccc(NC3(C(=O)O)CCC(C)(OC)CC3)cc2COC2CCCC2)c(F)c(OC)c1C` (single isomer, unassigned) [Compound 238]: the pIC50 reads like this: under setting [1], 6.57; under setting [2], 6.00 to 7.00.

Consider `COc1c(C(C)OC)ccc(-c2ccc(NC3(C(=O)O)CCOCC3)cc2COC2CCCC2)c1C` (single isomer, unassigned) [Compound 241], for which the negative logarithm of the IC50 (pIC50) by setting is: under setting [1], 7.06; under setting [2], 6.00 to 7.00.

On to `COc1c(C(C)OC)ccc(-c2ccc(NC3(C(=O)O)CCOCC3)cc2COC2CCCC2)c1C` (single isomer, unassigned) [Compound 242], for which the pIC50 by setting is: under setting [1], 6.58; under setting [2], 6.00 to 7.00.

Turning to `COc1cc(-c2ccc(NCCC(=O)O)cc2COCCc2ccccc2)cc(OC)c1C` [Compound 106], the pIC50 runs as follows: under setting [1], 5.46; under setting [2], less than 6.00.

In the case of `COc1cc(-c2ccc(N(C)CCC(=O)O)cc2COC2Cc3ccccc3C2)cc(OC)c1C` [Compound 107], the pIC50 was 5.59 under setting [1] and less than 6.00 under setting [2].

On to `COc1cc(-c2ccc(NCC(=O)O)cc2COC2Cc3ccccc3C2)cc(OC)c1C` [Compound 108], for which the pIC50 under setting [1] was 5.73 and the negative logarithm of the IC50 (pIC50) under setting [2] is less than 6.00.

In the case of `COc1cc(-c2ccc(NC3(C(=O)O)CCC3)cc2COC2Cc3ccccc3C2)cc(OC)c1C` [Compound 110, 1-((2-(((2,3-dihydro-1H-inden-2-yl)oxy)methyl)-3′,5′-dimethoxy-4′-methyl-[1,1′-biphenyl]-4-yl)amino)cyclobutane-1-carboxylic acid], the negative logarithm of the IC50 (pIC50) was 6.82 under setting [1] and 6.00 to 7.00 under setting [2].

For `COc1cc(-c2ccc(NC3(C(=O)O)CCOCC3)cc2COC2Cc3ccccc3C2)cc(OC)c1C` [Compound 111, 4-({2-[(2,3-dihydro-1H-inden-2-yloxy)methyl]-3′,5′-dimethoxy-4′-methyl-[1,1′-biphenyl]-4-yl}amino)oxane-4-carboxylic acid], the pIC50 reads like this: under setting [1], 7.70; under setting [2], more than 7.00.

In the case of `COc1cc(-c2ccc(NC3(C(=O)O)CCCC3)cc2COC2Cc3ccccc3C2)cc(OC)c1C` [Compound 112], the negative-log IC50 (pIC50) under setting [1] is 6.73 and the pIC50 under setting [2] was 6.00 to 7.00.

As for `CCOc1cc(-c2ccc(NCCC(=O)O)cc2COC2Cc3ccccc3C2)cc(OCC)c1C` [Compound 113], the pIC50 was 5.15 under setting [1] and less than 6.00 under setting [2].

Turning to `COc1cc(-c2ccc(NCCC(=O)O)cc2OCC2(C)Oc3ccccc3O2)cc(OC)c1C` [Compound 115], the pIC50 is 5.17 under setting [1] and less than 6.00 under setting [2].

In the case of `COc1cc(-c2ccc(NCC(C)C(=O)O)cc2COC2Cc3ccccc3C2)cc(OC)c1C` (centres unmarked) [Compound 116], the negative logarithm of the IC50 (pIC50) was 5.67 under setting [1] and less than 6.00 under setting [2].

In the case of `COc1cc(-c2ccc(OC3(C(=O)O)CC3)cc2COC2Cc3ccccc3C2)cc(OC)c1C` [Compound 117, 1-({2-[(2,3-dihydro-1H-inden-2-yloxy)methyl]-3′,5′-dimethoxy-4′-methyl-[1,1′-biphenyl]-4-yl}oxy)cyclopropane-1-carboxylic acid], the negative logarithm of the IC50 (pIC50) by setting is: under setting [1], 7.22; under setting [2], more than 7.00.

In the case of `COc1cc(-c2ccc(C3(C(=O)O)CC3)cc2COC2Cc3ccccc3C2)cc(OC)c1C` [Compound 118, 1-{2-[(2,3-dihydro-1H-inden-2-yloxy)methyl]-3′,5′-dimethoxy-4′-methyl-[1,1′-biphenyl]-4-yl}cyclopropane-1-carboxylic acid], the negative logarithm of the IC50 (pIC50) is 7.02 under setting [1] and more than 7.00 under setting [2].

Regarding `COc1cc(-c2ccc(NC3(C(=O)O)C[C@@H]3C)cc2COC2Cc3ccccc3C2)cc(OC)c1C` (stereo partly drawn) [Compound 119, (2S)-1-((2-(((2,3-dihydro-1H-inden-2-yl)oxy)methyl)-3′,5′-dimethoxy-4′-methyl-[1,1′-biphenyl]-4-yl)amino)-2-methylcyclopropane-1-carboxylic acid], the negative logarithm of the IC50 (pIC50) was 7.45 under setting [1] and more than 7.00 under setting [2].

Take `COc1cc(-c2ccc(NC3(C(=O)O)CC(F)(F)C3)cc2COC2Cc3ccccc3C2)cc(OC)c1C` [Compound 120]: the negative-log IC50 (pIC50) by setting is: under setting [1], 7.24; under setting [2], more than 7.00.

Turning to `COc1cc(-c2ccc(NC3(C(=O)O)CC3)cc2COC2Cc3ccccc3C2)cc(OC)c1C(C)=O` [Compound 121, 1-({4′-acetyl-2-[(2,3-dihydro-1H-inden-2-yloxy)methyl]-3′,5′-dimethoxy-[1,1′-biphenyl]-4-yl}amino)cyclopropane-1-carboxylic acid], the pIC50 under setting [1] is 7.87 and the pIC50 under setting [2] is more than 7.00.

As to `COc1cc(-c2ccc(NC3(C(=O)O)CC3)cc2COC2Cc3ccccc3C2)c(C)c(OC)c1C(C)=O` [Compound 122], the pIC50 is, setting by setting: under setting [1], 6.95; under setting [2], 6.00 to 7.00.

As for `COc1cc(-c2ccc(NC3(C(=O)O)CCOCC3)cc2COC2Cc3ccccc3C2)cc(OC)c1C(C)=O` [Compound 123], the pIC50 was 7.83 under setting [1] and more than 7.00 under setting [2].

On to `COc1cc(-c2ccc(NC3(C(=O)O)CCOCC3)cc2COC2CCCC2)cc(OC)c1C(C)=O` [Compound 124], for which the negative logarithm of the IC50 (pIC50) was 7.04 under setting [1] and more than 7.00 under setting [2].

As for `COc1cc(-c2ccc(NC3(C(=O)O)CCOCC3)cc2COC2Cc3ccccc3C2)cc(OC)c1C#N` [Compound 127], the negative-log IC50 (pIC50) runs as follows: under setting [1], 7.79; under setting [2], more than 7.00.

Take `COc1cc(-c2ccc(NC3(C(=O)O)CN(C(C)=O)C3)cc2COC2Cc3ccccc3C2)cc(OC)c1C` [Compound 128]: the pIC50 runs as follows: under setting [1], 7.50; under setting [2], more than 7.00.

As to `COC(=O)N1CC(Nc2ccc(-c3cc(OC)c(C)c(OC)c3)c(COC3Cc4ccccc4C3)c2)(C(=O)O)C1` [Compound 129], the negative-log IC50 (pIC50) was 7.76 under setting [1] and more than 7.00 under setting [2].

Regarding `COc1cc(-c2ccc(NC3(C(=O)O)CC(O)C3)cc2COC2Cc3ccccc3C2)cc(OC)c1C` (centres unmarked) [Compound 130], the negative logarithm of the IC50 (pIC50) was 6.72 under setting [1] and 6.00 to 7.00 under setting [2].
